We go through 17 compounds from PubChem BioAssay AID248 (DTP/NCI, 2004).

Inconclusive results and toxic doses are left out.

For the test, the system named is L1210 leukemia ip in BDF1 mice, survival T/C. As to the kind of experiment: NCI In Vivo Anticancer Drug Screen. Data for tumor model L1210 Leukemia (intraperitoneal) in B6D2F1 (BDF1) mice. Conditions: endpoint: mean survival time, higher = longer survival. The method, boiled down: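 Transplanted-tumor mice were given test agent; controls received vehicle only. Survival readings from the two groups were divided (treated over control).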

Where [1] appears, read: dose: 25.0 mg/kg/injection, schedule: Q01DX009 (ip), vehicle: saline.
[2] abbreviates: dose: 50.0 mg/kg/injection, schedule: Q01DX009 (ip), vehicle: saline.
[3] abbreviates: dose: 100.0 mg/kg/injection, schedule: Q01DX009 (ip), vehicle: saline.
[4] abbreviates: dose: 100.0 mg/kg/injection, schedule: Q04DX003 (ip), vehicle: Klucel (hydroxypropylcellulose) (HPC).
Setting [5] is: dose: 100.0 mg/kg/injection, schedule: Q01DX009 (ip), vehicle: Klucel (hydroxypropylcellulose) (HPC).
Setting [6] is: dose: 200.0 mg/kg/injection, schedule: Q01DX009 (ip), vehicle: Klucel (hydroxypropylcellulose) (HPC).
Setting [7] is: dose: 400.0 mg/kg/injection, schedule: Q01DX009 (ip), vehicle: Klucel (hydroxypropylcellulose) (HPC).
Setting [8] is: dose: 75.0 mg/kg/injection, schedule: Q01DX001 (ip), vehicle: saline.

Consider `CCOC(=O)C(=O)C(C#N)C(=O)OCC` (stereo not drawn), for which the T/C is 100 % of control (dose: 12.5 mg/kg/injection, schedule: Q04DX003 (ip), vehicle: Klucel (hydroxypropylcellulose) (HPC)); 98 % of control under setting [1]; 100 % of control (dose: 25.0 mg/kg/injection, schedule: Q04DX003 (ip), vehicle: Klucel (hydroxypropylcellulose) (HPC)); 98 % of control under setting [2]; 91 % of control (dose: 50.0 mg/kg/injection, schedule: Q04DX003 (ip), vehicle: Klucel (hydroxypropylcellulose) (HPC)); 95 % of control under setting [3]. The T/C under setting [4] was 97 % of control.
As for `CC[N+]1(CC)CCOC(=O)C1`, the T/C was 95 % of control under setting [3]; 109 % of control (dose: 100.0 mg/kg/injection, schedule: Q04DX003 (ip), vehicle: saline); 93 % of control (dose: 200.0 mg/kg/injection, schedule: Q01DX009 (ip), vehicle: saline); 101 % of control (dose: 200.0 mg/kg/injection, schedule: Q04DX003 (ip), vehicle: saline); 94 % of control (dose: 400.0 mg/kg/injection, schedule: Q01DX009 (ip), vehicle: saline); 101 % of control (dose: 400.0 mg/kg/injection, schedule: Q04DX003 (ip), vehicle: saline).
With `OC(Cc1ccccc1)(c1ccccc1)C(O)(Cc1ccccc1)c1ccccc1` (stereo not drawn), the T/C is 94 % of control (dose: 50.0 mg/kg/injection, schedule: Q01DX001 (ip), vehicle: saline); 94 % of control (dose: 100.0 mg/kg/injection, schedule: Q01DX001 (ip), vehicle: saline); 94 % of control (dose: 200.0 mg/kg/injection, schedule: Q01DX001 (ip), vehicle: saline); 94 % of control (dose: 400.0 mg/kg/injection, schedule: Q01DX001 (ip), vehicle: saline).
Turning to `CCCCCCCCCCCCCCCc1cccc2ccccc12`, the T/C was 92 % of control (dose: 100.0 mg/kg/injection, schedule: Q04DX003 (ip), vehicle: saline with Tween-80); 92 % of control (dose: 200.0 mg/kg/injection, schedule: Q04DX003 (ip), vehicle: saline with Tween-80); 88 % of control (dose: 400.0 mg/kg/injection, schedule: Q04DX003 (ip), vehicle: saline with Tween-80).
On to `CC(/C=C/C(O)=C1/C(=O)CNC1=O)=C\[C@@H](C)[C@H]1O[C@@]2(C)O[C@H](C(=O)[C@@H]3O[C@@]32C)[C@@H]1C`, for which the T/C was 94 % of control under setting [1]; 100 % of control under setting [2]; 89 % of control (dose: 100.0 mg/kg/injection, schedule: Q01DX001 (ip), vehicle: acetone); 93 % of control under setting [3]; 87 % of control (dose: 100.0 mg/kg/injection, schedule: Q04DX003 (ip), vehicle: acetone); 89 % of control (dose: 200.0 mg/kg/injection, schedule: Q01DX001 (ip), vehicle: acetone). In addition, the T/C (dose: 400.0 mg/kg/injection, schedule: Q01DX001 (ip), vehicle: acetone) is 96 % of control.
As to `Clc1cccc2nsnc12`, the T/C by setting is: under setting [5], 102 % of control; under setting [6], 100 % of control; under setting [7], 102 % of control.
On to `CC(C)(C)NC#SNC(C)(C)C`, for which the T/C reads like this: (dose: 100.0 mg/kg/injection, schedule: Q04DX002 (ip), vehicle: saline with Tween-80) 100 % of control; (dose: 200.0 mg/kg/injection, schedule: Q04DX002 (ip), vehicle: saline with Tween-80) 92 % of control; (dose: 400.0 mg/kg/injection, schedule: Q04DX002 (ip), vehicle: saline with Tween-80) 92 % of control.
On to `S=C(Nc1ccccc1)N1CCCCC1`, for which the T/C (dose: 50.0 mg/kg/injection, schedule: Q01DX001 (ip), vehicle: carboxymethylcellulose (CMC)) is 97 % of control; the T/C (dose: 100.0 mg/kg/injection, schedule: Q01DX001 (ip), vehicle: carboxymethylcellulose (CMC)) is 100 % of control; the T/C (dose: 200.0 mg/kg/injection, schedule: Q01DX001 (ip), vehicle: carboxymethylcellulose (CMC)) is 97 % of control; the T/C (dose: 400.0 mg/kg/injection, schedule: Q01DX001 (ip), vehicle: carboxymethylcellulose (CMC)) is 103 % of control.
For `Brc1ccccn1`, the T/C under setting [8] is 105 % of control.
Take `CCOC(=O)Cc1cc(=O)c2cc(OC)ccc2[nH]1`: the T/C is, setting by setting: under setting [8], 107 % of control; (dose: 75.0 mg/kg/injection, schedule: Q04DX003 (ip), vehicle: saline) 105 % of control; (dose: 150.0 mg/kg/injection, schedule: Q01DX001 (ip), vehicle: saline) 91 % of control; (dose: 150.0 mg/kg/injection, schedule: Q04DX003 (ip), vehicle: saline) 100 % of control; (dose: 300.0 mg/kg/injection, schedule: Q01DX001 (ip), vehicle: saline) 94 % of control; (dose: 300.0 mg/kg/injection, schedule: Q04DX003 (ip), vehicle: saline) 103 % of control.
As to `Cc1c2ccncc2cc2c3ccccc3n(C)c12`, the T/C (dose: 37.5 mg/kg/injection, schedule: Q04DX003 (ip), vehicle: Klucel (hydroxypropylcellulose) (HPC)) was 98 % of control; the T/C (dose: 75.0 mg/kg/injection, schedule: Q04DX003 (ip), vehicle: Klucel (hydroxypropylcellulose) (HPC)) was 103 % of control; the T/C (dose: 150.0 mg/kg/injection, schedule: Q04DX003 (ip), vehicle: Klucel (hydroxypropylcellulose) (HPC)) was 102 % of control; the T/C (dose: 300.0 mg/kg/injection, schedule: Q04DX003 (ip), vehicle: Klucel (hydroxypropylcellulose) (HPC)) was 115 % of control.
Turning to `C[C@H]1CP(c2ccccc2)(c2ccccc2)(c2ccccc2)O[C@@]1(C(=O)c1ccccc1)c1ccccc1`, the T/C was 100 % of control (dose: 12.5 mg/kg/injection, schedule: Q04DX003 (ip), vehicle: saline with Tween-80); 100 % of control (dose: 25.0 mg/kg/injection, schedule: Q04DX003 (ip), vehicle: saline with Tween-80); 94 % of control (dose: 50.0 mg/kg/injection, schedule: Q04DX003 (ip), vehicle: saline with Tween-80).
Take `CS(=O)(=O)N(CC(=O)O)Cc1cccc(Br)c1`: the T/C runs as follows: (dose: 50.0 mg/kg/injection, schedule: Q01DX005 (ip), vehicle: other) 107 % of control; (dose: 100.0 mg/kg/injection, schedule: Q01DX005 (ip), vehicle: other) 120 % of control; (dose: 200.0 mg/kg/injection, schedule: Q01DX005 (ip), vehicle: other) 100 % of control.
As for `CCCCCCCCCCCCCCCCCSc1cccc(C)c1`, the T/C reads like this: under setting [4], 93 % of control; (dose: 200.0 mg/kg/injection, schedule: Q04DX003 (ip), vehicle: Klucel (hydroxypropylcellulose) (HPC)) 88 % of control.
With `CCCCOC(=O)c1ccc(NC(=O)Nc2ccc(SC)cc2)cc1`, the T/C by setting is: under setting [5], 95 % of control; under setting [6], 95 % of control; under setting [7], 95 % of control.
With `C[N+](C)(C)c1ccc(/C=N\O)cc1`, the T/C (dose: 6.25 mg/kg/injection, schedule: Q04DX003 (ip), vehicle: saline) is 95 % of control and the T/C (dose: 12.5 mg/kg/injection, schedule: Q04DX003 (ip), vehicle: saline) was 102 % of control.
Regarding `CC(=O)Nc1ccc2c(Nc3ccc(NS(C)(=O)=O)cc3)c3ccccc3nc2c1`, the T/C is 151 % of control (dose: 0.8 mg/kg/injection, schedule: Q01DX009 (ip), vehicle: Klucel (hydroxypropylcellulose) (HPC)); 156 % of control (dose: 1.5 mg/kg/injection, schedule: Q01DX009 (sc), vehicle: saline); 159 % of control (dose: 1.6 mg/kg/injection, schedule: Q01DX009 (ip), vehicle: Klucel (hydroxypropylcellulose) (HPC)); 180 % of control (dose: 3.1 mg/kg/injection, schedule: Q01DX009 (ip), vehicle: Klucel (hydroxypropylcellulose) (HPC)); 228 % of control (dose: 5.4 mg/kg/injection, schedule: Q01DX009 (ip), vehicle: saline with Tween-80); 281 % of control (dose: 6.25 mg/kg/injection, schedule: Q01DX009 (ip), vehicle: Klucel (hydroxypropylcellulose) (HPC)). Further, the T/C is, setting by setting: (dose: 8.0 mg/kg/injection, schedule: Q01DX009 (ip), vehicle: saline with Tween-80) 176 % of control; (dose: 12.0 mg/kg/injection, schedule: Q01DX009 (ip), vehicle: saline with Tween-80) 171 % of control; (dose: 12.5 mg/kg/injection, schedule: Q01DX009 (ip), vehicle: saline with Tween-80) 165 % of control; (dose: 12.5 mg/kg/injection, schedule: Q01DX009 (sc), vehicle: saline) 152 % of control; (dose: 18.0 mg/kg/injection, schedule: Q01DX009 (ip), vehicle: saline with Tween-80) 93 % of control; (dose: 25.0 mg/kg/injection, schedule: Q01DX009 (ip), vehicle: Klucel (hydroxypropylcellulose) (HPC)) 93 % of control.
